Data published in doi:10.1101/2023.12.04.569845, “Identification of 4-(6-((2-methoxyphenyl)amino)pyrazin-2-yl)benzoic acids as CSNK2A inhibitors with antiviral activity and improved selectivity over PIM3” (bioRxiv, 2023).
Like-named read-outs stand apart in the source and are kept apart here. Values belong to the compound of their own block, whether it stands above or below them.

What was measured:
Assay in all cases: biochemical
[1] = biological target: AAK1 (Homo sapiens, UniProt Q2M2I8); design: Thermal shift (DSF, SYPRO Orange) Tm shift of recombinant kinase domains at 10 uM compound
[2] = biological target: T1, MEK4 (Homo sapiens, UniProt P45985); design: Thermal shift (DSF, SYPRO Orange) Tm shift of recombinant kinase domains at 10 uM compound
T1 construct: gene MAP2K4; kinase domain
T1 sequence (P45985 1-399): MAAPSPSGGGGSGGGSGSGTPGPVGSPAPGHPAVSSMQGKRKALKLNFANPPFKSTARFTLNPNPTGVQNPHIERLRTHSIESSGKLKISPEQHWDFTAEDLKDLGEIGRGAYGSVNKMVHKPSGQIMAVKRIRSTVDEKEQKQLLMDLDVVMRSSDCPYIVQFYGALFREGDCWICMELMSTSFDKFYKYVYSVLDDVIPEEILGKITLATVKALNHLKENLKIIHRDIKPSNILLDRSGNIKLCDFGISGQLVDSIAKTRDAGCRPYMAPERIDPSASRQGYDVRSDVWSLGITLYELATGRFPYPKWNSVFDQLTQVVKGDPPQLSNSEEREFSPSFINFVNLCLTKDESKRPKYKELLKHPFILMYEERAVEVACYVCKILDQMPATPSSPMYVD

[3] = biological target: T2, OSR1 (Homo sapiens, UniProt O95747); design: Thermal shift (DSF, SYPRO Orange) Tm shift of recombinant kinase domains at 10 uM compound
T2 construct: gene OXSR1

[4] = biological target: T3, CK1d (Homo sapiens, UniProt P48730); design: Thermal shift (DSF, SYPRO Orange) Tm shift of recombinant kinase domains at 10 uM compound
T3 construct: gene CSNK1D

[5] = biological target: BRD4 (Homo sapiens, UniProt O60885); design: Thermal shift (DSF, SYPRO Orange) Tm shift of recombinant kinase domains at 10 uM compound
[6] = biological target: DAPK1 (Homo sapiens, UniProt P53355); design: Thermal shift (DSF, SYPRO Orange) Tm shift of recombinant kinase domains at 10 uM compound
[7] = biological target: T4, TIF1 (Homo sapiens, UniProt O15164); design: Thermal shift assay (SYPRO Orange DSF) of recombinant kinase domains; Tm shift
T4 construct: gene TRIM24
T4 sequence (O15164 1-1050): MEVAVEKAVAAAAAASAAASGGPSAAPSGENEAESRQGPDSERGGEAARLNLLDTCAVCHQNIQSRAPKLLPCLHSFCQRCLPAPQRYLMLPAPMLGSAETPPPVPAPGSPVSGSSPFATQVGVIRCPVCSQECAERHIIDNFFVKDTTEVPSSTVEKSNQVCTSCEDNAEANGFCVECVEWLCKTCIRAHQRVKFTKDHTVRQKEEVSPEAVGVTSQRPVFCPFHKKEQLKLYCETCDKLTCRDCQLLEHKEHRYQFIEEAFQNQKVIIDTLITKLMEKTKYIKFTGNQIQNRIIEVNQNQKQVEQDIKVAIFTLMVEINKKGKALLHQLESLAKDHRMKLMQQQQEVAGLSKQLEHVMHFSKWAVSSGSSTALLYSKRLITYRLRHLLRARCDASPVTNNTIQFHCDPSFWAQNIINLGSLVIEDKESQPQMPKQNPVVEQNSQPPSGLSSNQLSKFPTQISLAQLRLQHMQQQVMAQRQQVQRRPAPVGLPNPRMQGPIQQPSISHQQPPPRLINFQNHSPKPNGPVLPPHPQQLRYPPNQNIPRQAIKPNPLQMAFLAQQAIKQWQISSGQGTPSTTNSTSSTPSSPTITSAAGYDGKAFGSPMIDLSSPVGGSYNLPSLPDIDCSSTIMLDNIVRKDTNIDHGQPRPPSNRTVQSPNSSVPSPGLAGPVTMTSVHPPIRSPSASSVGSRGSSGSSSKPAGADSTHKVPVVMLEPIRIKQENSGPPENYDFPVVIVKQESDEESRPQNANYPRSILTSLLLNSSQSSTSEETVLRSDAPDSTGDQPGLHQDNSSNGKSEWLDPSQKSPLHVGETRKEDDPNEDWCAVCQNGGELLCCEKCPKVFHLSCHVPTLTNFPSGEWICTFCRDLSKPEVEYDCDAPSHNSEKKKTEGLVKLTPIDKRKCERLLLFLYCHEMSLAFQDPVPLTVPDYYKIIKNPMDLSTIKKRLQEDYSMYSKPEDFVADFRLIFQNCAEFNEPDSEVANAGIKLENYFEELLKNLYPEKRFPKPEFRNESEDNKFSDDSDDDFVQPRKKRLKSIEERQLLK
Experimental: (§1) S23 Thermal stability kinase selectivity. The assay was performed as previously described. 9,10 Briefly, recombinant protein kinase domains at a concentration of 2 μM were mixed with 10 μM compound in a buffer containing 20 mM HEPES, pH 7.5, and 500 mM NaCl. SYPRO Orange (5000×, Invitrogen) was added as a fluorescence probe (1 µl per mL). Subsequently, temperature-dependent protein unfolding profiles were measured using the QuantStudio™ 5 realtime PCR machine (Thermo Fisher). Excitation and emission filters were set to 465 nm and 590 nm, respectively. The temperature was raised with a step rate of 3°C per minute. Data points were analysed with the internal software (Thermal Shift SoftwareTM Version 1.4, Thermo Fisher) using the Boltzmann equation to determine the inflection point of the transition curve.

[8] = biological target: T5, ATK3 (Homo sapiens, UniProt Q9Y243); design: Thermal shift assay (SYPRO Orange DSF) of recombinant kinase domains; Tm shift
T5 construct: gene AKT3; kinase domain
Experimental: as §1

T2 sequence (O95747 whole entry, the tested form may be a part): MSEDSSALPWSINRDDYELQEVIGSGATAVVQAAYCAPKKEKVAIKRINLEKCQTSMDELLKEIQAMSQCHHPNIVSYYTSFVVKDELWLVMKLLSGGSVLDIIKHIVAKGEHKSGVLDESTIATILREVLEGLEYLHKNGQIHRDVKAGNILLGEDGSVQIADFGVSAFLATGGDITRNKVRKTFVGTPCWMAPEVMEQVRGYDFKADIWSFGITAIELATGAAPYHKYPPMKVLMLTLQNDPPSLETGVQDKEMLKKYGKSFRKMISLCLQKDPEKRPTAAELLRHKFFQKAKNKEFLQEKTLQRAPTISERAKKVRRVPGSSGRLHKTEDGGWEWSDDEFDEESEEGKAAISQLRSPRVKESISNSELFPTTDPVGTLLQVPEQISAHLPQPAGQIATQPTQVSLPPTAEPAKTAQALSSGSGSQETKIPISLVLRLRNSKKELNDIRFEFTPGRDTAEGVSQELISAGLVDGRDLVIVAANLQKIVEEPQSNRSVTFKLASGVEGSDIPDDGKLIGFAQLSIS
AAK1, sequence (Q2M2I8 whole entry, the tested form may be a part): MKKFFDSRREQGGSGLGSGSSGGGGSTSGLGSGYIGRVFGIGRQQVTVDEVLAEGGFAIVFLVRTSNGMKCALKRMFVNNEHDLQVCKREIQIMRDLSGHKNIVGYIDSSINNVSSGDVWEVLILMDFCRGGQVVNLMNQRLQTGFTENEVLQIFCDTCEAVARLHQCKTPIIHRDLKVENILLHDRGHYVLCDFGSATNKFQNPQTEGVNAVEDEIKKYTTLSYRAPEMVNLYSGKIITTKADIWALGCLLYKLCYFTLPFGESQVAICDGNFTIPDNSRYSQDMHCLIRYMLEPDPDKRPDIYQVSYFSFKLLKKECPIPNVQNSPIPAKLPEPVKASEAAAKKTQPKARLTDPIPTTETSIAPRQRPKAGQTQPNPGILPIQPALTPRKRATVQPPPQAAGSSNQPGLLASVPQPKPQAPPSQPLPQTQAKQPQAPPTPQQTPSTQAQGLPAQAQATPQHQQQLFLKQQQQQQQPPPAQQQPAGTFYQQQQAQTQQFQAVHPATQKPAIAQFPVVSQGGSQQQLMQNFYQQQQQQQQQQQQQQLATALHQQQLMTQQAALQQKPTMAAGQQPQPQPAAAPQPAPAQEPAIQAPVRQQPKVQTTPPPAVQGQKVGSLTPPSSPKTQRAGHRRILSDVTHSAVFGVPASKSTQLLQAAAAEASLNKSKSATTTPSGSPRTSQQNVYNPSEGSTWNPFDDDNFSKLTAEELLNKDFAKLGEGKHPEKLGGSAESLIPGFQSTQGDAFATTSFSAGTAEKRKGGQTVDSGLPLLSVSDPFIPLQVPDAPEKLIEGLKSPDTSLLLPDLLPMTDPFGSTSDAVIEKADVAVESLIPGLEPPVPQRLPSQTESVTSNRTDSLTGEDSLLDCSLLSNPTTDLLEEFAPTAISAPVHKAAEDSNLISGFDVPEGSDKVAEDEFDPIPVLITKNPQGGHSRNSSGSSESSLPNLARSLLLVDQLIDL
DAPK1, sequence (P53355 whole entry, the tested form may be a part): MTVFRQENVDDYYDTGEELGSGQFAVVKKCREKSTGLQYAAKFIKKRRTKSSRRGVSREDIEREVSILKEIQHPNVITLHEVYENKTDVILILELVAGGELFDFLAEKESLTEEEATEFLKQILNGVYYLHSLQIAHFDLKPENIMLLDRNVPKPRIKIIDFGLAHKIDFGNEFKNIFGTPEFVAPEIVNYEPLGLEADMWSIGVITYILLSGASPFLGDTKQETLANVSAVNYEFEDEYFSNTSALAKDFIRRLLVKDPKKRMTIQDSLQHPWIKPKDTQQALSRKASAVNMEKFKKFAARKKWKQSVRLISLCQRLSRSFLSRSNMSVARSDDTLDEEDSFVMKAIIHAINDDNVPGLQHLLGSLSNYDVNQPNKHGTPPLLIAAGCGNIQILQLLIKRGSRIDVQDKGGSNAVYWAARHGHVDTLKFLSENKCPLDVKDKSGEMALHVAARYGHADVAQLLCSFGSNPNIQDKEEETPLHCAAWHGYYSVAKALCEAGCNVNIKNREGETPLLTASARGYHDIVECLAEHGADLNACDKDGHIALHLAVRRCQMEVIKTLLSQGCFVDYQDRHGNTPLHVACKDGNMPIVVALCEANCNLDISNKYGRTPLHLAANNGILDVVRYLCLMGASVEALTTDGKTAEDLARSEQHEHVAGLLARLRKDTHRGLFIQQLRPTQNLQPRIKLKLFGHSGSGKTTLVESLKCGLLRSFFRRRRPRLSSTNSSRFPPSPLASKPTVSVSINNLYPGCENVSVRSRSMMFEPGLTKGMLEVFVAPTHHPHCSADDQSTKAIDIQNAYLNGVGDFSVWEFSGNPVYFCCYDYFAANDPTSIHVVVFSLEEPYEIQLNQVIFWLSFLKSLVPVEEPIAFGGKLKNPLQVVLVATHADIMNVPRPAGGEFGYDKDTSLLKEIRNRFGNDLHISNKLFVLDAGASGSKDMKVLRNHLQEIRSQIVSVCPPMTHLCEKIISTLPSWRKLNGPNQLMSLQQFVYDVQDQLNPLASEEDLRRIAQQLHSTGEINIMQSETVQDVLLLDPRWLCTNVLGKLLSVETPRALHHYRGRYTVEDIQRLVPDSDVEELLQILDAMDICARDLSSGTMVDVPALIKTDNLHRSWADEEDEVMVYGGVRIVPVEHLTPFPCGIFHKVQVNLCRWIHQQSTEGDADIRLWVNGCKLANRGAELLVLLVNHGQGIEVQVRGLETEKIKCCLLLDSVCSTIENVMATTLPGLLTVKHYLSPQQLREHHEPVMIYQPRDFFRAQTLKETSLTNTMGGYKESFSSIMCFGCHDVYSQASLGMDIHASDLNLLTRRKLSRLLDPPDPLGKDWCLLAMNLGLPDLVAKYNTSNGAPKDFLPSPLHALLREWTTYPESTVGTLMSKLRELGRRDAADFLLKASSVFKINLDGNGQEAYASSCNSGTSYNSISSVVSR
T5 sequence (Q9Y243 whole entry, the tested form may be a part): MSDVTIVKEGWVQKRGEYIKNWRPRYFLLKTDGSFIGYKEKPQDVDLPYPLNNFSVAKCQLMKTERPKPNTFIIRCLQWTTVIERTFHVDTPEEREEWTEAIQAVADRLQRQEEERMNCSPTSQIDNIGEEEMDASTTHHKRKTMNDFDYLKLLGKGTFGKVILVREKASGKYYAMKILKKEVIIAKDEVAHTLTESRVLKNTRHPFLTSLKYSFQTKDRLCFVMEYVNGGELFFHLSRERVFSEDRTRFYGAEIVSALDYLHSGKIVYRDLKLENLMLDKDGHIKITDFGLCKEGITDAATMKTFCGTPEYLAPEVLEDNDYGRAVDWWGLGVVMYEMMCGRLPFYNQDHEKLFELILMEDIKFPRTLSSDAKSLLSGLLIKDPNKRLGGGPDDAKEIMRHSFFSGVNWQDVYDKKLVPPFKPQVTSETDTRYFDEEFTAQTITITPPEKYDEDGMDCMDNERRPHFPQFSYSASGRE
T3 sequence (P48730 whole entry, the tested form may be a part): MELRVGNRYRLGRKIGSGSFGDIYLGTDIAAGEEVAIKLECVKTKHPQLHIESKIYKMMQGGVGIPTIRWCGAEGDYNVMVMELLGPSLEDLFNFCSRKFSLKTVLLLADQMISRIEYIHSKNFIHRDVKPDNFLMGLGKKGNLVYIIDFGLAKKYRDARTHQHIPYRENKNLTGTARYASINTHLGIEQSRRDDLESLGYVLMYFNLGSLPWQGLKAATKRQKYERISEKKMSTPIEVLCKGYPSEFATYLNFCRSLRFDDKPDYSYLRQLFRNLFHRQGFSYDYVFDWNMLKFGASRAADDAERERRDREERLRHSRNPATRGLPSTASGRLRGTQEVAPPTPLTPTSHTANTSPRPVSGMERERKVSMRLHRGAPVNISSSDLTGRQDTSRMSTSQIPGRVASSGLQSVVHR

ΔTm at 10 µM ([1]; read-out: 6c): 6 °C
ΔTm at 10 µM ([2]; read-out: 6c): 9 °C
ΔTm at 10 µM ([3]; read-out: 6c): -2 °C
ΔTm at 10 µM ([4]; read-out: 6c): 3 °C
ΔTm at 10 µM ([5]; read-out: 6c): 2 °C
ΔTm at 10 µM ([6]; read-out: 6c): 7 °C
ΔTm at 10 µM ([7]; read-out: 6c): -2 °C
ΔTm at 10 µM ([8]; read-out: 6c): -1 °C
Structure (SMILES): CC(C)Oc1ccc2ccn(-c3cncc(-c4ccc(C(=O)O)cc4)n3)c2c1 [6c]

ΔTm at 10 µM ([1]; read-out: 7c): 5 °C
ΔTm at 10 µM ([2]; read-out: 7c): 2 °C
ΔTm at 10 µM ([3]; read-out: 7c): 0 °C
ΔTm at 10 µM ([4]; read-out: 7c): 2 °C
ΔTm at 10 µM ([5]; read-out: 7c): 1 °C
ΔTm at 10 µM ([6]; read-out: 7c): 6 °C
ΔTm at 10 µM ([7]; read-out: 7c): -1 °C
ΔTm at 10 µM ([8]; read-out: 7c): -1 °C
Structure (SMILES): COc1ccc(OC(C)C)cc1Nc1cncc(-c2ccc(C(=O)O)cc2)n1 [7c]

ΔTm at 10 µM ([1]; read-out: 2): 7 °C
ΔTm at 10 µM ([2]; read-out: 2): 5 °C
ΔTm at 10 µM ([3]; read-out: 2): -1 °C
ΔTm at 10 µM ([4]; read-out: 2): 3 °C
ΔTm at 10 µM ([5]; read-out: 2): 2 °C
ΔTm at 10 µM ([6]; read-out: 2): 9 °C
ΔTm at 10 µM ([7]; read-out: 2): 0 °C
ΔTm at 10 µM ([8]; read-out: 2): 1 °C
Structure (SMILES): CC(C)Nc1ccc2cnn(-c3cncc(-c4ccc(C(=O)O)cc4)n3)c2c1 [compound 2, 2]
